Source: patent US6903101B1, “Substituted pyridazines and fused pyridazines with angiogenesis inhibiting activity” (Bayer Pharmaceuticals Corporation, priority 2000, dated 2005)
Where a name gives a salt, the structure may show the parent alone.

Columns and labels:
KDR kinase domain = molecular target: T1, KDR kinase domain (Homo sapiens, UniProt P35968); assay: KDR Assay (kinase ELISA, poly(Glu4;Tyr1) phosphorylation); assay type: biochemical; conditions: 3.3 μM ATP, 60 minutes room temperature
T1 construct: The cytosolic kinase domain of KDR kinase was expressed as a 6 His fusion protein in Sf9 insect cells; 6 His; made in house; host or cells: Sf9 insect cells
Procedure: The cytosolic kinase domain of KDR kinase was expressed as a 6 His fusion protein in Sf9 insect cells. The KDR kinase domain fusion protein was purified over a Ni++chelating column. Ninety-six well ELISA plates were coated with 5 μg poly(Glu4;Tyr1) (Sigma Chemical Co., St Louis, Mo.) in 100 μl HEPES buffer (20 mM HEPES, pH 7.5, 150 mM NaCl, 0.02% Thimerosal) at 4° overnight. Before use, the plate was washed with HEPES, NaCl buffer and the plates were blocked with 1% BSA, 0.1% Tween 20 in HEPES, NaCl buffer.
Test compounds were serially diluted in 100% DMSO from 4 mM to 0.12 μM in half-log dilutions. These dilutions were further diluted twenty fold in H2O to obtain compound solutions in 5% DMSO. […]
The assay was incubated with test compound or vehicle alone with gentle agitation at room temperature for 60 minutes. […] PY/anti-PY complexes were detected with an anti-mouse IgG/HRP conjugate (Amershamn International plc, Buckinghamshire, England). Phosphotyrosine was quantitated by incubating with 100 μl 3, 3′, 5, 5′ tetramethylbenzidine solution (Kirkegaard and Perry, TMB Microwell 1 Component peroxidase substrate). […]
Optical densities were determined spectrophotometrically at 450 nm in a 96-well plate reader, SpectraMax 250 (Molecular Devices). Background (no ATP in assay) OD values were subtracted from all ODs and the percent inhibition was calculated according to the equation: [formula] […]

[1] = molecular target: T2, full length KDR receptor in NIH3T3 cells (Homo sapiens, UniProt P35968); assay: Cell mechanistic assay - Inhibition of 3T3 KDR phosphorylation; assay type: cell-based; conditions: NIH3T3 cells expressing KDR, VEGF (30 ng/ml) stimulation, receptor phosphotyrosine ELISA
T2 construct: NIH3T3 cells expressing the full length KDR receptor were grown in DMEM; expressed in transfected cells; host or cells: NIH3T3 cells (G418 selection)
Procedure: Cell mechanistic assay-Inhibition of 3T3 KDR phosphorylation:
NIH3T3 cells expressing the full length KDR receptor were grown in DMEM (Life Technologies, Inc., Grand Island, N.Y.) supplemented with 10% newborn calf serum, low glucose, 25 mM/L sodium pyruvate, pyridoxine hydrochloride and 0.2 mg/ml of G418 (Life Technologies Inc., Grand Island, N.Y.). The cells were maintained in collagen I-coated T75 flasks (Becton Dickinson Labware, Bedford, Mass.) in a humidified 5% CO2 atmosphere at 37° C.
Fifteen thousand cells were plated into each well of a collagen I-coated 96-well plate in the DMEM growth medium. Six hours later, the cells were washed and the medium was replaced with DMEM without serum. […]
To assess receptor phosphorylation, 100 microliters of each cell lysate was added to the wells of an ELISA plate precoated with 300 ng of antibody C20 (Santa Cruz Biotechnology, Inc., Santa Cruz, Calif.). […] Wells were washed and phosphotyrosine was quantitated by addtion of 100 μl per well of 3,3′,5,5′ tetramethylbenzidine (Kirkegaard and Perry, TMB Microwell 1 Component peroxidase substrate) solution. […]
Optical densities (OD) were determined spectrophotometrically at 450 nm in a 96-well plate reader (SpectraMax 250, Molecular Devices). Background (no VEGF added) OD values were subtracted from all ODs and percent inhibition was calculated according to the equation: [formula] […]

T2 sequence (P35968 20-1356): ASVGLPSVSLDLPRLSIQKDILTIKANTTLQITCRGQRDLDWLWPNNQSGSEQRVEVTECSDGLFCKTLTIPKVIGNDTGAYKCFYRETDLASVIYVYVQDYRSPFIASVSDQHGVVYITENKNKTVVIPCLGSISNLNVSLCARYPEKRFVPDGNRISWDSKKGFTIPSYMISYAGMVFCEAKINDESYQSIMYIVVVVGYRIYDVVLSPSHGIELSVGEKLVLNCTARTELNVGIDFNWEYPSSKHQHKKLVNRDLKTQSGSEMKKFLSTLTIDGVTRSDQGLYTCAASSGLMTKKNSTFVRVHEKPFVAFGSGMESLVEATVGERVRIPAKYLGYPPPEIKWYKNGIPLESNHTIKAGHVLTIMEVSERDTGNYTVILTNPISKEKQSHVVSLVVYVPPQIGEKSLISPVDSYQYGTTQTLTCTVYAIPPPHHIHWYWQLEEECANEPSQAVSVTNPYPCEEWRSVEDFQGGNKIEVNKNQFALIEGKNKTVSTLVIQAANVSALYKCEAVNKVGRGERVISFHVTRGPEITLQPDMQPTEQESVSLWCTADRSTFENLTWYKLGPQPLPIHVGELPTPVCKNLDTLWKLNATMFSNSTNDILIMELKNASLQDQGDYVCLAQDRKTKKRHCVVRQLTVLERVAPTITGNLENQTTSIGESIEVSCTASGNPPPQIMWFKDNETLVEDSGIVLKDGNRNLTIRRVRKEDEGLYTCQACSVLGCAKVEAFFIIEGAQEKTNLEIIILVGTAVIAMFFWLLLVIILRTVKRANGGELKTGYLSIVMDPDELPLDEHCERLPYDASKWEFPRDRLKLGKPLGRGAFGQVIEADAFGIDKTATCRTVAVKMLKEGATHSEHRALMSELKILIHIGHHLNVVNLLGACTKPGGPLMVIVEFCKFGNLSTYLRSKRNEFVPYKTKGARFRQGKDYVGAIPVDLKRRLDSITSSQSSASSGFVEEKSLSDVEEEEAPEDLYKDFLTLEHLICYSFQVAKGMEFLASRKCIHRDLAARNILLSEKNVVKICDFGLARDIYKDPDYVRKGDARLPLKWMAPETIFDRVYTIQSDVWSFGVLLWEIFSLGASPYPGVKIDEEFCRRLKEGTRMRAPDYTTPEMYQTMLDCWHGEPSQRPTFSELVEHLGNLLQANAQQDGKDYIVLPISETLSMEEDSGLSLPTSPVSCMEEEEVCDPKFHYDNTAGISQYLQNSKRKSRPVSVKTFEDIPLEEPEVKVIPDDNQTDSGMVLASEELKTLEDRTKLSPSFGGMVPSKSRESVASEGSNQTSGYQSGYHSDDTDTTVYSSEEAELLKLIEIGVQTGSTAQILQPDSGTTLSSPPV
T1 sequence (P35968 834-1162 limits assumed): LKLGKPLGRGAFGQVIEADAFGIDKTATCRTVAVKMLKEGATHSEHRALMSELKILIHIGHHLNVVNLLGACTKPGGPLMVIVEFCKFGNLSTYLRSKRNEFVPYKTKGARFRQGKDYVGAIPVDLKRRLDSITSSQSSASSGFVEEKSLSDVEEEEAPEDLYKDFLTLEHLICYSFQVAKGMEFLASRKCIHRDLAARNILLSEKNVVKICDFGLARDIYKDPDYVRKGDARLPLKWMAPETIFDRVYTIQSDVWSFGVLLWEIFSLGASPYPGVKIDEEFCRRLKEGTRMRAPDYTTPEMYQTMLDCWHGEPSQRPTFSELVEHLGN

melting point | Compound | IC50 (KDR kinase domain) | IC50 [1]
255 °C (dec.) | CNC(=O)c1cc(Cc2nnc(Nc3ccc(Cl)cc3)c3ccccc23)ccn1 (as salt: hydrochloride) [Example 11, 4-[4-(4-Chlorophenylamino)phthalazin-1-ylmethyl]pyridin-2-yl carboxylic acid methylamide dihydrochloride] |  | 
163 to 164 °C | c1ccc2c(Nc3ccc4ncsc4c3)nnc(Cc3ccncc3)c2c1 [Example 23] |  | 
143 to 145.2 °C | NC(=O)c1cc(COc2nnc(Nc3ccc(Cl)cc3)c3ccccc23)ccn1 (as salt: hydrochloride) [Example 15, 4-[4-(4-Chlorophenylamino)phthalazin-1-yloxymethyl]pyridin-2-yl carboxylic acid amide dihydrochloride] |  | 
156 to 161 °C | NC(=O)c1cc(Cc2nnc(Nc3ccc(Cl)cc3)c3ccccc23)ccn1 (as salt: methanesulfonate) [Example 14, 4-[4-(4-Chlorophenylamino)phthalazin-1-ylmethyl]pyridin-2-yl carboxylic acid amide dimethanesulfonate] |  | 
 | Clc1ccc(Nc2ccc(OCc3ccncc3)nn2)cc1 [Example 21] | > 1000 nM | > 50 nM
122 to 123 °C | N#CC(c1ccncc1)c1nnc(Nc2ccc3c(c2)CCC3)c2ccccc12 (stereo not shown) [Example 22, 1-(indan-5-ylamino)-4-(4-pyridylcyanomethyl)phthalazine] |  | 
75 to 80 °C | NC(=O)c1cc(COc2nnc(Nc3ccc(Cl)cc3)c3ccccc23)ccn1 (as salt: methanesulfonate) [Example 16, 4-[4-(4-Chlorophenylamino)phthalazin-1-yloxymethyl]pyridin-2-yl carboxylic acid amide dimethanesulfonate] |  | 
180 to 198 °C | Cl.Cl.NC(=O)c1cc(Cc2nnc(Nc3ccc(Cl)cc3)c3ccccc23)ccn1 [Example 13, 4-[4-(4-Chlorophenylamino)phthalazin-1-ylmethyl]pyridin-2-yl carboxylic acid amide dihydrochloride] |  | 
245 to 249 °C | CNC(=O)c1cc(Cc2nnc(Nc3ccc(Cl)cc3)c3ccccc23)ccn1 (as salt: methanesulfonate) [Example 12, 4-[4-(4-Chlorophenylamino)phthalazin-1-ylmethyl]pyridin-2-yl carboxylic acid methylamide dimethanesulfonate] |  | 
